Structures are written as SMILES.

human orexin-2 receptor, sequence (O43614 whole entry): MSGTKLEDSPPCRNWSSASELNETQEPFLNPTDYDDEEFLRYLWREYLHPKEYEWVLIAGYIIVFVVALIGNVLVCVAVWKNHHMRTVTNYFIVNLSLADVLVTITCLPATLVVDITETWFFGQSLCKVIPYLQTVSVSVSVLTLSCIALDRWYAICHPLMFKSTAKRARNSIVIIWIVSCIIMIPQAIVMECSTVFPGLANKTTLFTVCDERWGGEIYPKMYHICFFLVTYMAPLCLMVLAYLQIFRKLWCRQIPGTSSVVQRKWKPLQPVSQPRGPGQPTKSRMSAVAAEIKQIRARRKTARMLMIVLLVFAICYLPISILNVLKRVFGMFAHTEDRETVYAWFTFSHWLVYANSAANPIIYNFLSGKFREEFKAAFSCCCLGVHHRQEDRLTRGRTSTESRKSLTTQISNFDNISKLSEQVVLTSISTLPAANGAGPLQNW

The test has as its target human orexin-2 receptor (Homo sapiens (Human), UniProt O43614). Kind of test: Human orexin 2 receptor radioligand binding ([3H]-EMPA competition). Conditions: HEK293 cells stably expressing human orexin-2 receptor; [3H]-EMPA 5 nM final; apparent Ki=IC50/(1+C/Kd), Kd=2 nM; read-out: OR 2 Ki.
On to `COc1cc(N2CC3CN(C(=O)c4c(F)cccc4-n4nccn4)CC3C2)nc(N(C)C)n1` (stereo not drawn) [Example 1, 4-[5-{[2-Fluoro-6-(2H-1,2,3-triazol-2-yl)phenyl]carbonyl}hexahydropyrrolo[3,4-c]pyrrol-2(1H)-yl]-6-methoxy-N,N-dimethylpyrimidin-2-amine], for which the Ki is 0.037 µM.

For `CN(C)c1cc(N2CC3CN(C(=O)c4ccccc4-n4nccn4)CC3C2)nc(C(F)(F)F)n1` (stereo not drawn) [Example 2, N,N-Dimethyl-6-[5-{[2-(2H-1,2,3-triazol-2-yl)phenyl]carbonyl}hexahydropyrrolo[3,4-c]pyrrol-2(1H)-yl]-2-(trifluoromethyl)pyrimidin-4-amine], the Ki was 0.033 µM. Take `CN(C)c1cc(N2CC3CN(C(=O)c4c(F)cccc4-n4nccn4)CC3C2)nc(C(F)(F)F)n1` (stereo not drawn) [Example 3, 6-[5-{[2-Fluoro-6-(2H-1,2,3-triazol-2-yl)phenyl]carbonyl}hexahydropyrrolo[3,4-c]pyrrol-2(1H)-yl]-N,N-dimethyl-2-(trifluoromethyl)pyrimidin-4-amine]: the Ki turned out to be 0.042 µM.

As for `COc1cc(N2CC3CN(C(=O)c4cc(F)ccc4-n4nccn4)CC3C2)nc(N(C)C)n1` (stereo not drawn) [Example 4, 4-[5-{[5-Fluoro-2-(2H-1,2,3-triazol-2-yl)phenyl]carbonyl}hexahydropyrrolo[3,4-c]pyrrol-2(1H)-yl]-6-methoxy-N,N-dimethylpyrimidin-2-amine], the Ki came out at 0.065 µM. As for `COc1cc(N2CC3CN(C(=O)c4ccccc4-n4nccn4)CC3C2)nc(N(C)C)n1` (stereo not drawn) [Example 5, 4-Methoxy-N,N-dimethyl-6-[5-{[2-(2H-1,2,3-triazol-2-yl)phenyl]carbonyl}hexahydropyrrolo-[3,4-c]pyrrol-2(1H)-yl]pyrimidin-2-amine], the figure is 0.014 µM. As for `CN(C)c1cc(N2CC3CN(C(=O)c4ccc(F)cc4-n4nccn4)CC3C2)nc(C(F)(F)F)n1` (stereo not drawn) [Example 6, 6-[5-{[4-Fluoro-2-(2H-1,2,3-triazol-2-yl)phenyl]carbonyl}hexahydropyrrolo[3,4-c]pyrrol-2(1H)-yl]-N,N-dimethyl-2-(trifluoromethyl)pyrimidin-4-amine], the figure is 0.067 µM; as for `COc1cc(N2CC3CN(C(=O)c4ccc(F)cc4-n4nccn4)CC3C2)nc(N(C)C)n1` (stereo not drawn) [Example 7, 4-[5-{[4-Fluoro-2-(2H-1,2,3-triazol-2-yl)phenyl]carbonyl}hexahydropyrrolo[3,4-c]pyrrol-2(1H)-yl]-6-methoxy-N,N-dimethylpyrimidin-2-amine], 0.042 µM. Consider `Cc1cc(C)nc(N2CC3CN(C(=O)c4sccc4-n4cccc4)CC3C2)n1` (stereo not drawn) [Example 8, 2-(4,6-Dimethylpyrimidin-2-yl)-5-{[3-(1H-pyrrol-1-yl)thiophen-2-yl]carbonyl}octahydro-pyrrolo[3,4-c]pyrrole], for which the Ki was 0.542 µM.

Take `CN(C)c1cc(N2CC3CN(C(=O)c4cc(F)ccc4-n4nccn4)CC3C2)nc(C(F)(F)F)n1` (stereo not drawn) [Example 9, 6-[5-{[5-Fluoro-2-(2H-1,2,3-triazol-2-yl)phenyl]carbonyl}hexahydropyrrolo[3,4-c]pyrrol-2(1H)-yl]-N,N-dimethyl-2-(trifluoromethyl)pyrimidin-4-amine]: the Ki worked out at 0.101 µM. Regarding `Cc1cc(C)nc(N2CC3CN(C(=O)c4ccnn4-c4ccccc4)CC3C2)n1` (stereo not drawn) [Example 10, 2-(4,6-Dimethylpyrimidin-2-yl)-5-[(1-phenyl-1H-pyrazol-5-yl)carbonyl]octahydropyrrolo[3,4-c]pyrrole], the Ki stood at 0.17 µM. Take `Cc1cc(C)nc(N2CC3CN(C(=O)c4sccc4-c4ccccc4)CC3C2)n1` (stereo not drawn) [Example 12, 2-(4,6-Dimethylpyrimidin-2-yl)-5-[(3-phenylthiophen-2-yl)carbonyl]octahydropyrrolo[3,4-c]pyrrole]: the Ki is 0.046 µM. Consider `Cc1cc(C)nc(N2CC3CN(C(=O)c4occc4-c4ccccc4)CC3C2)n1` (stereo not drawn) [Example 13, 2-(4,6-Dimethylpyrimidin-2-yl)-5-[(3-phenylfuran-2-yl)carbonyl]octahydropyrrolo[3,4-c]pyrrole], for which the Ki was found to be 0.089 µM. Consider `Cc1cc(C)nc(N2CC3CN(C(=O)c4ccccc4-c4nnc[nH]4)CC3C2)n1` (stereo not drawn) [Example 14, 2-(4,6-Dimethylpyrimidin-2-yl)-5-{[2-(1H-1,2,4-triazol-5-yl)phenyl]carbonyl}octahydro-pyrrolo[3,4-c]pyrrole], for which the Ki was 0.028 µM. As to `COc1ccc(C(=O)N2CC3CN(c4nc5ccc(F)cc5s4)CC3C2)c(OC)c1` (stereo not drawn) [Example 16, 2-{5-[(2,4-Dimethoxyphenyl)carbonyl]hexahydropyrrolo[3,4-c]pyrrol-2(1H)-yl}-6-fluoro-1,3-benzothiazole], the Ki is 0.3 µM.

On to `COc1ccc(C(=O)N2CC3CN(c4nc5ccccc5s4)CC3C2)c(OC)c1` (stereo not drawn) [Example 17, 2-{5-[(2,4-Dimethoxyphenyl)carbonyl]hexahydropyrrolo[3,4-c]pyrrol-2(1H)-yl}-1,3-benzothiazole], for which the Ki stood at 0.73 µM.

On to `O=C(c1ccccc1-n1cccn1)N1CC2CN(c3cnc4ccccc4n3)CC2C1` (stereo not drawn) [Example 18, 2-[5-{[2-(1H-Pyrazol-1-yl)phenyl]carbonyl}hexahydropyrrolo[3,4-c]pyrrol-2(1H)-yl]quinoxaline], for which the Ki was 0.519 µM. The figure for `O=C(c1ccccc1-c1cccs1)N1CC2CN(c3cnc4ccccc4n3)CC2C1` (stereo not drawn) [Example 19, 2-{5-[(2-Thiophen-2-ylphenyl)carbonyl]hexahydropyrrolo[3,4-c]pyrrol-2(1H)-yl}quinoxaline] is 0.024 µM.

Consider `O=C(c1cccc2c1OCCO2)N1CC2CN(c3nccc(-c4ccccc4)n3)CC2C1` (stereo not drawn) [Example 21, 2-(2,3-Dihydro-1,4-benzodioxin-5-ylcarbonyl)-5-(4-phenylpyrimidin-2-yl)octahydropyrrolo[3,4-c]pyrrole], for which the Ki was found to be 0.352 µM. In the case of `O=C(c1ccccc1-c1cccs1)N1CC2CN(c3nccc(-c4ccccc4)n3)CC2C1` (stereo not drawn) [Example 22, 2-(4-Phenylpyrimidin-2-yl)-5-[(2-thiophen-2-ylphenyl)carbonyl]octahydro-pyrrolo[3,4-c]pyrrole], the Ki was found to be 0.07 µM. As for `O=C(c1ccccc1-n1cccn1)N1CC2CN(c3nccc(-c4ccccc4)n3)CC2C1` (stereo not drawn) [Example 23, 2-(4-Phenylpyrimidin-2-yl)-5-{[2-(1H-pyrazol-1-yl)phenyl]carbonyl}octahydro-pyrrolo[3,4-c]pyrrole], the figure is 0.364 µM. As for `O=C(c1ccccc1-n1cccc1)N1CC2CN(c3nccc(-c4ccccc4)n3)CC2C1` (stereo not drawn) [Example 24, 2-(4-Phenylpyrimidin-2-yl)-5-{[2-(1H-pyrrol-1-yl)phenyl]carbonyl}octahydro-pyrrolo[3,4-c]pyrrole], the figure is 0.415 µM; as for `Cc1ccc2ccccc2c1C(=O)N1CC2CN(c3nccc(-c4ccccc4)n3)CC2C1` (stereo not drawn) [Example 25, 2-[(2-Methylnaphthalen-1-yl)carbonyl]-5-(4-phenylpyrimidin-2-yl)octahydropyrrolo[3,4-c]pyrrole], 0.11 µM; as for `N#Cc1ccccc1C(=O)N1CC2CN(c3cnc4ccccc4n3)CC2C1` (stereo not drawn) [Example 26, 2-(5-Quinoxalin-2-yl-hexahydro-pyrrolo[3,4-c]pyrrole-2-carbonyl)-benzonitrile], 9 µM.

For `O=C(c1ccccc1-n1cccc1)N1CC2CN(c3cnc4ccccc4n3)CC2C1` (stereo not drawn) [Example 27, 2-[5-{[2-(1H-Pyrrol-1-yl)phenyl]carbonyl}hexahydropyrrolo[3,4-c]pyrrol-2(1H)-yl]quinoxaline], the Ki is 0.74 µM.

(Values after patent US8653263B2 (Janssen Pharmaceutica, priority 2009, dated 2014).)
